Tests used:
[1] = rat heart rate elevation and anti-goiter assays; cited from earlier work
Hairless (Hr) mRNA = experiment: Induction of Hairless (Hr) mRNA expression in the brain by qPCR after ip administration; format: in vivo, C57BL/6J mice; conditions: 2 hr, normalized to GAPDH mRNA
Experimental: Euthanasia was performed on three mice per dose at 2 hr and the tissues were harvested. The brain tissues collected for qPCR analysis were processed according to a protocol for RNA extraction using Trizol reagent and the PureLink RNA mini kit, using Qiagen RNase-free DNase kit during the optional DNase treatment step. 1 μg of extracted RNA was used to synthesize cDNA via a reverse transcription (RT) reaction using the Qiagen QuantiTect Reverse Transcription kit. DNA contamination was controlled for by duplicating one sample without the addition of RT enzyme. Expression of the Hairless (Hr) gene was measured by QPCR using the QuantiTect SYBR green PCR kit from Qiagen. The primer sequences for hairless ([…]; Rev: [NT] were previously described by Barca-Mayo19. The template cDNA was diluted 2-fold to minimize the interference of RT reagents in the qPCR reaction. Glyceraldehyde-3-Phosphate Dehydrogenase (GAPDH) was the housekeeping gene used for normalizing between samples. Data analysis for single dose experiment was done using the comparative CT method to look at the relative differences in Hr gene expression.

SMILES: Cc1cc(CC(N)C(=O)O)cc(C)c1Oc1ccc(O)c(C(C)C)c1 (racemic) [DIMIT, 3′-isopropyl-3,5-dimethyl-DL-thyronine]
- activity [1]: little measurable activity

SMILES: CC(C)c1cc(Oc2c(Br)cc(C[C@H](N)C(=O)O)cc2Br)ccc1O [DIBIT, 3′-isopropyl-3,5-dibromo-L-thyronine]
- potency relative to L-T4 [1]: 2-7 fold

SMILES: Cc1cc(OCC(=O)O)cc(C)c1Cc1ccc(O)c(C(C)C)c1 [GC-1, sobetirome, reference compound]
- induction of Hr expression (Hairless (Hr) mRNA; 9.14 μmol/kg ip, brain): 1.6 fold
- EC50 of Hr mRNA induction in the brain (Hairless (Hr) mRNA; ip, ±SEM): 8.20 ± 12.65 µmol/kg

— patent US10544075B2 (OREGON HEALTH & SCIENCE UNIVERSITY, priority 2016, dated 2020)
